Data as given in PubChem BioAssay (NCI).
Where “and” joins values, the source holds several entries; their conditions need not be identical. Equal entries are not always repeated.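 Protocol summary: plate cells (96-well), add compound at 5 concentrations, incubate 48 h, interpolate endpoints linearly. Abbreviation: GI50, concentration required for 50% inhibition of growth. TGI marks complete inhibition of growth.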

What was measured:
Experiment in all cases: NCI-60 cell line screen, 48 h
[1] = test system: KM12 colon
[2] = test system: HT29 colon
[3] = test system: A549 NSCLC
[4] = test system: 786-0 renal
[5] = test system: SK-OV-3 ovarian
[6] = test system: SF-268 CNS
[7] = test system: ACHN renal
[8] = test system: IGROV1 ovarian
[9] = test system: LOX IMVI melanoma
[10] = test system: UO-31 renal
[11] = test system: MDA-N
[12] = test system: OVCAR-3 ovarian

Structure (SMILES)	TGI [1]	TGI [2]	TGI [3]	TGI [4]	TGI [5]	TGI [6]	TGI [7]	TGI [8] [µM]	TGI [9]	TGI [10]	TGI [11]	TGI [12]	GI50 [1]	GI50 [3]	GI50 [5]	GI50 [10]
CCOC(=O)/C=C(/C(=O)OCC)n1ccc(=O)n(Cc2cnnn2COCCOC(C)=O)c1=O	> 56.4 µM	32 µM	> 100 µM	29.2 µM	> 100 µM	44.4 µM	22.1 µM	39.3	37.3 µM	29.6 µM	46.3 µM	31 µM	–	–	–	–
CC(C)=CCC[C@@H](C)C1=C(O)C(Nc2ccccc2Cl)=C(C)C(=O)C1=O	30 µM	26.3 µM	> 59.7 µM	> 52 µM	> 75 µM	> 75 µM	> 46.6 µM	46.5	> 75 µM	> 49.5 µM	> 75 µM	> 75 µM	–	–	–	–
CCOC(=O)c1nc2ccc(C(F)(F)F)cc2nc1NCc1ccc(OC)c(OC)c1	> 100 µM	> 100 µM	> 100 µM	> 100 µM	> 100 µM	> 100 µM	> 100 µM	> 100	> 100 µM	> 100 µM	> 100 µM	> 100 µM	–	–	–	–
COc1ccc(COC(=O)NCC(=O)NC(C)C(=O)NC(Cc2ccccc2)C(=O)OCc2ccccc2)cc1 (stereo not drawn)	> 100 µM and 46.3 µM	86.4 µM and 33.1 µM	41.2 µM and > 100 µM	73.1 µM and 36 µM	42.5 µM and > 100 µM	> 100 µM and 55.2 µM	44.5 µM and 36.7 µM	> 100	79.1 µM and 38.8 µM	44.9 µM and > 100 µM	> 100 µM and 62.8 µM	64.2 µM and 50.7 µM	62.8 µM and 23.9 µM	18.8 µM and > 100 µM	22.9 µM and > 100 µM	23.2 µM and 69.6 µM
CCCCc1ccc(Nc2nc(OC)c3ncn(C4CC(O)C(CO)O4)c3n2)cc1 (stereo not drawn)	32 µM	37.1 µM	39.3 µM	30.9 µM	27.8 µM	34.5 µM	31.2 µM	27.2	31.4 µM	35.7 µM	30 µM	54.3 µM	–	–	–	–
CCOP(=O)(OCC)C(NC(=O)C(C(F)(F)F)C(F)(F)F)c1ccccc1 (stereo not drawn)	> 100 µM	> 100 µM	> 100 µM	> 100 µM	> 100 µM	> 100 µM	> 100 µM	> 100	> 100 µM	> 100 µM	> 100 µM	> 100 µM	–	–	–	–
CC(C)=CCCC(C)CCOS(=O)C(F)(F)F (stereo not drawn)	> 100 µM	28.5 µM	72.1 µM	> 100 µM	> 100 µM	44.7 µM	34.4 µM	74.6	37.2 µM	35.2 µM	14 µM	27.8 µM	–	–	–	–
O=C1CCc2ccc(O)c(c2)Oc2ccc(cc2)C(Sc2ccccc2)CCO1 (stereo not drawn)	29.5 µM	30.1 µM	59 µM	29.6 µM	> 100 µM	42.4 µM	32.1 µM	27.6	25.8 µM	33.4 µM	34.8 µM	29.6 µM	–	–	–	–
COc1ccc(N=NC(=O)NC(CC(C)C)C(=O)NCC(=O)O)cc1 (stereo not drawn)	> 100 µM	> 100 µM	> 61.9 µM	> 100 µM	> 100 µM	> 100 µM	> 100 µM	> 100	> 100 µM	10.7 µM	> 100 µM	> 100 µM	–	–	–	–
CC(=O)c1ccc2c(c1)CC1(C2)Cc2cc3c(c(C(=O)O)c2C1)CCC3 (stereo not drawn)	> 100 µM	> 100 µM	> 100 µM	> 100 µM	> 100 µM	> 100 µM	> 100 µM	> 100	> 100 µM	> 100 µM	> 100 µM	> 100 µM	–	–	–	–
O=C(NNC(=S)NC1CCCCC1)C12CC3CC(CC(C3)C1)C2	> 100 µM	> 100 µM	> 100 µM	> 100 µM	> 100 µM	> 100 µM	> 100 µM	> 100	> 100 µM	> 100 µM	> 100 µM	> 100 µM	–	–	–	–
CC1=C(O)c2ccccc2C(=O)C1=O	> 100 µM	> 100 µM	> 100 µM	> 100 µM	> 100 µM	> 100 µM	> 100 µM	> 100	> 100 µM	> 65.3 µM	> 100 µM	> 100 µM	–	–	–	–
O=Cc1cc(C(=O)OCc2ccccc2)n(S(=O)(=O)c2ccccc2)c1	37.6 µM	48.4 µM	68.7 µM	> 100 µM	66.3 µM	65.5 µM	36.6 µM	84	62.5 µM	44.1 µM	30.3 µM	35.6 µM	–	–	–	–
O=C1O[C@H]2[C@H](OC(=O)c3cc(O)c(O)c(O)c3)[C@@H](OC(=O)c3cc(O)c(O)c4c3[C@@H]3C1=CC(=O)C(O)(O)C3(O)O4)[C@H](OC(=O)c1cc(O)c(O)c(O)c1)O[C@@H]2COC(=O)c1cc(O)c(O)c(O)c1 (stereo partly drawn)	41.1 µM	> 100 µM	> 100 µM	> 100 µM	> 100 µM	> 100 µM	> 100 µM	> 100	> 100 µM	> 100 µM	> 100 µM	> 100 µM	–	–	–	–
Nc1nc(NCCCO)cc(=O)[nH]1	> 100 µM	> 100 µM	> 100 µM	> 100 µM	> 100 µM	> 100 µM	> 100 µM	> 100	> 100 µM	> 100 µM	> 100 µM	> 100 µM	–	–	–	–
O=C1CC(CC(=O)c2ccc(Br)cc2)C(=O)/C1=C(/O)c1ccc(Br)cc1 (stereo not drawn)	> 100 µM	> 100 µM	> 100 µM	> 100 µM	> 100 µM	> 100 µM	> 100 µM	> 100	> 100 µM	> 100 µM	> 100 µM	> 100 µM	–	–	–	–
COc1c(C(=O)NCCN(CCNC(=O)c2cccc(-c3cccc(C(=O)N(C)C)c3OC)c2OC)CCNC(=O)c2cccc(-c3cccc(C(=O)N(C)C)c3OC)c2OC)cccc1-c1cccc(C(=O)N(C)C)c1OC	31.6 µM	> 100 µM	> 100 µM	> 100 µM	> 100 µM	47.2 µM	> 100 µM	> 100	33.7 µM	> 100 µM	37.9 µM	32.5 µM	–	–	–	–
